Experimental data reported in patent US20250255883A1, “Compositions and Methods for Treating Aging Hair” (CHL Industries, LLC, priority 2021, published 2025).

System: Normal human keratinocytes (HEKa)
Experiment: Real-time quantitative PCR gene expression in normal human keratinocytes treated for 24 hours
Format: cell-based

Structure (SMILES): C=CC1=C(C)C2=CC3=NC(=C(CC(=O)[O-])C4=NC(=C(C)C4=C([O-])[O-])C=c4[n-]c(c(C)c4CC)=CC1=N2)[C@@H](CCC(=O)[O-])[C@@H]3C.[Cu+2].[Na+].[Na+].[Na+] [TCCE6, trisodium copper (II) chlorin e6]
- Fold Up- or Down-Regulation 18S (gene 18S (housekeeping), 20 ug/mL, vs. water-treated control): 1.1 Fold
- Fold Up- or Down-Regulation AQP3 (gene AQP3, 20 ug/mL, vs. water-treated control): 1.7 Fold
- Fold Up- or Down-Regulation AREL1 (gene AREL1, 20 ug/mL, vs. water-treated control): −1.0 Fold
- Fold Up- or Down-Regulation ARRDC3 (gene ARRDC3, 20 ug/mL, vs. water-treated control): 6.1 Fold
- Fold Up- or Down-Regulation BAMBI (gene BAMBI, 20 ug/mL, vs. water-treated control): 6.2 Fold
- Fold Up- or Down-Regulation CCL20 (gene CCL20, 20 ug/mL, vs. water-treated control): 1.3 Fold
- Fold Up- or Down-Regulation CDKN1A (gene CDKN1A, 20 ug/mL, vs. water-treated control): 1.5 Fold
- Fold Up- or Down-Regulation CSF1 (gene CSF1, 20 ug/mL, vs. water-treated control): −1.3 Fold
- Fold Up- or Down-Regulation CSF2 (gene CSF2, 20 ug/mL, vs. water-treated control): −1.2 Fold
- Fold Up- or Down-Regulation CXCL1 (gene CXCL1, 20 ug/mL, vs. water-treated control): 1.6 Fold
- Fold Up- or Down-Regulation CXCL2 (gene CXCL2, 20 ug/mL, vs. water-treated control): 1.2 Fold
- Fold Up- or Down-Regulation CXCL3 (gene CXCL3, 20 ug/mL, vs. water-treated control): 1.7 Fold
- Fold Up- or Down-Regulation CXCL8 (gene CXCL8, 20 ug/mL, vs. water-treated control): 1.1 Fold
- Fold Up- or Down-Regulation CXCL10 (gene CXCL10, 20 ug/mL, vs. water-treated control): 2.0 Fold
- Fold Up- or Down-Regulation CYB561 (gene CYB561, 20 ug/mL, vs. water-treated control): −1.1 Fold
- Fold Up- or Down-Regulation CYP1A1 (gene CYP1A1, 20 ug/mL, vs. water-treated control): −1.8 Fold
- Fold Up- or Down-Regulation DDX5 (gene DDX5, 20 ug/mL, vs. water-treated control): 1.0 Fold
- Fold Up- or Down-Regulation DEFB1 (gene DEFB1, 20 ug/mL, vs. water-treated control): 2.2 Fold
- Fold Up- or Down-Regulation EPGN (gene EPGN, 20 ug/mL, vs. water-treated control): 2.3 Fold
- Fold Up- or Down-Regulation FGF2 (gene FGF2, 20 ug/mL, vs. water-treated control): −1.2 Fold
- Fold Up- or Down-Regulation FOS (gene FOS, 20 ug/mL, vs. water-treated control): 3.7 Fold
- Fold Up- or Down-Regulation G2E3 (gene G2E3, 20 ug/mL, vs. water-treated control): −1.2 Fold
- Fold Up- or Down-Regulation GDF15 (gene GDF15, 20 ug/mL, vs. water-treated control): 1.9 Fold
- Fold Up- or Down-Regulation GPADH (gene GPADH (housekeeping), 20 ug/mL, vs. water-treated control): −1.2 Fold
- Fold Up- or Down-Regulation GPX2 (gene GPX2, 20 ug/mL, vs. water-treated control): −1.1 Fold
- Fold Up- or Down-Regulation HBEGF (gene HBEGF, 20 ug/mL, vs. water-treated control): 2.5 Fold
- Fold Up- or Down-Regulation HECTD1 (gene HECTD1, 20 ug/mL, vs. water-treated control): −1.0 Fold
- Fold Up- or Down-Regulation HERC1 (gene HERC1, 20 ug/mL, vs. water-treated control): 1.1 Fold
- Fold Up- or Down-Regulation HIF1AN (gene HIF1AN, 20 ug/mL, vs. water-treated control): −1.3 Fold
- Fold Up- or Down-Regulation HPRT1 (gene HPRT1 (housekeeping), 20 ug/mL, vs. water-treated control): 1.0 Fold
- Fold Up- or Down-Regulation HSP90B1 (gene HSP90B1, 20 ug/mL, vs. water-treated control): 1.4 Fold
- Fold Up- or Down-Regulation IFI44L (gene IFI44L, 20 ug/mL, vs. water-treated control): −2.5 Fold
- Fold Up- or Down-Regulation JUN (gene JUN, 20 ug/mL, vs. water-treated control): 1.2 Fold
- Fold Up- or Down-Regulation JUNB (gene JUNB, 20 ug/mL, vs. water-treated control): 1.9 Fold
- Fold Up- or Down-Regulation LTB4R (gene LTB4R, 20 ug/mL, vs. water-treated control): 1.1 Fold
- Fold Up- or Down-Regulation MAFF (gene MAFF, 20 ug/mL, vs. water-treated control): 2.2 Fold
- Fold Up- or Down-Regulation MAP1LC3B (gene MAP1LC3B, 20 ug/mL, vs. water-treated control): 1.5 Fold
- Fold Up- or Down-Regulation MAPK14 (gene MAPK14, 20 ug/mL, vs. water-treated control): −1.1 Fold
- Fold Up- or Down-Regulation MGAT1 (gene MGAT1, 20 ug/mL, vs. water-treated control): −1.7 Fold
- Fold Up- or Down-Regulation MGAT5 (gene MGAT5, 20 ug/mL, vs. water-treated control): 1.2 Fold
- Fold Up- or Down-Regulation MOGS (gene MOGS, 20 ug/mL, vs. water-treated control): −1.3 Fold
- Fold Up- or Down-Regulation N4BP1 (gene N4BP1, 20 ug/mL, vs. water-treated control): 1.3 Fold
- Fold Up- or Down-Regulation NFKBIA (gene NFKBIA, 20 ug/mL, vs. water-treated control): 1.3 Fold
- Fold Up- or Down-Regulation PELI1 (gene PELI1, 20 ug/mL, vs. water-treated control): 1.4 Fold
- Fold Up- or Down-Regulation PLAUR (gene PLAUR, 20 ug/mL, vs. water-treated control): 9.7 Fold
- Fold Up- or Down-Regulation PPP1R15A (gene PPP1R15A, 20 ug/mL, vs. water-treated control): 2.5 Fold
- Fold Up- or Down-Regulation PTGFRN (gene PTGFRN, 20 ug/mL, vs. water-treated control): −2.6 Fold
- Fold Up- or Down-Regulation PTGS2 (gene PTGS2, 20 ug/mL, vs. water-treated control): 2.4 Fold
- Fold Up- or Down-Regulation PTX3 (gene PTX3, 20 ug/mL, vs. water-treated control): 1.8 Fold
- Fold Up- or Down-Regulation REL (gene REL, 20 ug/mL, vs. water-treated control): −1.1 Fold
- Fold Up- or Down-Regulation RSAD2 (gene RSAD2, 20 ug/mL, vs. water-treated control): 1.2 Fold
- Fold Up- or Down-Regulation SAMD9L (gene SAMD9L, 20 ug/mL, vs. water-treated control): 1.5 Fold
- Fold Up- or Down-Regulation SOD2 (gene SOD2, 20 ug/mL, vs. water-treated control): −1.4 Fold
- Fold Up- or Down-Regulation SPRR2B (gene SPRR2B, 20 ug/mL, vs. water-treated control): 6.5 Fold
- Fold Up- or Down-Regulation TGFB1 (gene TGFB1, 20 ug/mL, vs. water-treated control): −1.2 Fold
- Fold Up- or Down-Regulation TNF (gene TNF, 20 ug/mL, vs. water-treated control): 1.2 Fold
- Fold Up- or Down-Regulation TNFAIP3 (gene TNFAIP3, 20 ug/mL, vs. water-treated control): 2.6 Fold
- Fold Up- or Down-Regulation UBE2S (gene UBE2S, 20 ug/mL, vs. water-treated control): −1.1 Fold
- Fold Up- or Down-Regulation UBE3B (gene UBE3B, 20 ug/mL, vs. water-treated control): 1.4 Fold
- Fold Up- or Down-Regulation UBE4B (gene UBE4B, 20 ug/mL, vs. water-treated control): −1.4 Fold
- Fold Up- or Down-Regulation UBE20 (gene UBE20, 20 ug/mL, vs. water-treated control): 2.5 Fold
- Fold Up- or Down-Regulation VCP (gene VCP, 20 ug/mL, vs. water-treated control): 1.2 Fold
- Fold Up- or Down-Regulation VEGFA (gene VEGFA, 20 ug/mL, vs. water-treated control): 2.5 Fold
- fold value changes of significantly (p<0.05) upregulated or downregulated genes (genes ARRDC3, BAMBI, CXCL10, DEFB1, EPGN, FOS, HBEGF, IFI44L, MAFF, PLAUR, PPP1R15A, PTGS2, SPRR2B, TNFAIP3, UBE20, VEGFA, 20 ug/mL): ≥ 2.0 ×
